{"source": "ChEMBL document CHEMBL5465560", "about": "“Selectivity Literature for EUbOPEN Chemogenomic Library” (2024)", "key": {"[1]": {"target": "Serine/threonine-protein kinase PAK 3 (Homo sapiens) (UniProt O75914)", "sequence (O75914 whole entry, looked up)": "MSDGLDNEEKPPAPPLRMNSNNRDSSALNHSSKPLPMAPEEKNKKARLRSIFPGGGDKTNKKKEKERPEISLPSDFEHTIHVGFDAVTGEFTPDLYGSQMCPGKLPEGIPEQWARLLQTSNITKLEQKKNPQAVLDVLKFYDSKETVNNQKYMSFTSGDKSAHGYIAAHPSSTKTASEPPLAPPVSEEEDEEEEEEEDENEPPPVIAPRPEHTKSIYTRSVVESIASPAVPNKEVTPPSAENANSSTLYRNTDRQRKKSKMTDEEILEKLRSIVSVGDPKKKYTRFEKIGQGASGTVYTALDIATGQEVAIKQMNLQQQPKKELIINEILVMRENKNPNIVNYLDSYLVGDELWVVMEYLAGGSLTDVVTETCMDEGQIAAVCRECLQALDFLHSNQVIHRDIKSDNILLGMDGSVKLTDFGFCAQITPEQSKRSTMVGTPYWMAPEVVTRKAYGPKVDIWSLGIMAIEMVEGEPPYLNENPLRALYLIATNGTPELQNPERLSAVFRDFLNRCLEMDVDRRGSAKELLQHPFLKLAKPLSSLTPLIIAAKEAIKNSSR", "experiment": "Selectivity interaction (KinomeScan (DiscoverX)) EUB0001049a PAK3", "details": "at 1 µM"}, "[2]": {"target": "Mitogen-activated protein kinase kinase kinase kinase 5 (Homo sapiens) (UniProt Q9Y4K4)", "sequence (Q9Y4K4 whole entry, looked up)": "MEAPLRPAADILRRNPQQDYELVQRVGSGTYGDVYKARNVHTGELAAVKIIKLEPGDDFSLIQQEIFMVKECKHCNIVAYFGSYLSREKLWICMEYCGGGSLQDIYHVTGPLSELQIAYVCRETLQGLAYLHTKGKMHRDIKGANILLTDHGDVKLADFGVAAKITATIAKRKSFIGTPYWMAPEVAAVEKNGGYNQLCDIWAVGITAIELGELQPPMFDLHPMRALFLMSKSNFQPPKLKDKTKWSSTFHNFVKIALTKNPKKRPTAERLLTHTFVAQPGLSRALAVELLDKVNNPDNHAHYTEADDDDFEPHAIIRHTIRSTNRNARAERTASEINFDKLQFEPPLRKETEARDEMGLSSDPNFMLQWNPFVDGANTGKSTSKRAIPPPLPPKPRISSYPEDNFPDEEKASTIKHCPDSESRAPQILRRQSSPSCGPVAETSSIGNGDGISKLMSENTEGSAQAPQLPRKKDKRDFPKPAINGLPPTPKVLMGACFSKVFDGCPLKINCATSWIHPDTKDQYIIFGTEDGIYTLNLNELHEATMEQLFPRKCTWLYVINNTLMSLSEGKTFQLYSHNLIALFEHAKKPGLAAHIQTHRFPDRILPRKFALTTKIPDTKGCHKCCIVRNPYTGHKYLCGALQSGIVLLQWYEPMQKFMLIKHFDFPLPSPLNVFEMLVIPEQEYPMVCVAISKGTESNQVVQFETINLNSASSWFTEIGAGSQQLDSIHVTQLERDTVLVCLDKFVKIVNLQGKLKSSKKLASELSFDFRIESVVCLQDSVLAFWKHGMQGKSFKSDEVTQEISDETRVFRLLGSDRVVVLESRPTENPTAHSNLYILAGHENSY", "experiment": "Selectivity interaction (KinomeScan (DiscoverX)) EUB0000092b MAP4K5", "details": "at 10 µM"}, "[3]": {"target": "T1, Receptor-interacting serine/threonine-protein kinase 4 (Homo sapiens) (UniProt P57078)", "T1 sequence (whole entry)": "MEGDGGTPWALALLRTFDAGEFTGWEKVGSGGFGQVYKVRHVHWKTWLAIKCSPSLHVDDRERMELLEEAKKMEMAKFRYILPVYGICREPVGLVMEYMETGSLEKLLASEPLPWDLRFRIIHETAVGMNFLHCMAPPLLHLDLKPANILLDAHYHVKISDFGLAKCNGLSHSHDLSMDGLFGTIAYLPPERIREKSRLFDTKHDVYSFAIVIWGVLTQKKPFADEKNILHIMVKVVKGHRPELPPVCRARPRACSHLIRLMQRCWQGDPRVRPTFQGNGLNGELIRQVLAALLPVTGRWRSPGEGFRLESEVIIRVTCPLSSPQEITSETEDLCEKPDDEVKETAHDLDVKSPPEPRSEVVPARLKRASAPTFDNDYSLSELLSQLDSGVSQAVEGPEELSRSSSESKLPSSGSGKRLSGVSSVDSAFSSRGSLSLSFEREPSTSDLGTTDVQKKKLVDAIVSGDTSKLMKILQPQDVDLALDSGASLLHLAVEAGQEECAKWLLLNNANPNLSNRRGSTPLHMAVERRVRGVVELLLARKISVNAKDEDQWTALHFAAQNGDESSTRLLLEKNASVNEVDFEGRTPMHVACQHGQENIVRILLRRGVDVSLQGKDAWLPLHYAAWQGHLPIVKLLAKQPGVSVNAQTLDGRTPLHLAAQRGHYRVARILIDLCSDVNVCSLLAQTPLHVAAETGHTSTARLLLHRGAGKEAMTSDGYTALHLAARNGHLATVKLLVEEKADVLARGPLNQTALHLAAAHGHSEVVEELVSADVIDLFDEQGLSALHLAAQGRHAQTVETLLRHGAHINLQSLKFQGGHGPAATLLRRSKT", "experiment": "Selectivity interaction (KinomeScan (DiscoverX)) EUB0000092b RIPK4", "details": "at 10 µM"}, "[4]": {"target": "Death-associated protein kinase 2 (Homo sapiens) (UniProt Q9UIK4)", "sequence (Q9UIK4 whole entry, looked up)": "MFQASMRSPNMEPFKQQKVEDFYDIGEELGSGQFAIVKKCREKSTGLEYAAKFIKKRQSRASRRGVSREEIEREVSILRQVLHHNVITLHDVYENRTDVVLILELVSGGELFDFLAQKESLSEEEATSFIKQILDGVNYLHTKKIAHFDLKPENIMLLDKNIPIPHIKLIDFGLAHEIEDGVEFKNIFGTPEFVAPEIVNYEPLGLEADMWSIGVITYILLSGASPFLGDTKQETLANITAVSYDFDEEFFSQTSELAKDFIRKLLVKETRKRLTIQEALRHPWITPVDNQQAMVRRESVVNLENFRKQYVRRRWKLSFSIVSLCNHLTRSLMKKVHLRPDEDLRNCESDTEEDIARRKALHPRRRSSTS", "experiment": "Selectivity interaction (KinomeScan (DiscoverX)) EUB0000045b DAPK2"}, "[5]": {"target": "T2, Protein kinase C iota type (Homo sapiens) (UniProt P41743)", "T2 sequence (whole entry)": "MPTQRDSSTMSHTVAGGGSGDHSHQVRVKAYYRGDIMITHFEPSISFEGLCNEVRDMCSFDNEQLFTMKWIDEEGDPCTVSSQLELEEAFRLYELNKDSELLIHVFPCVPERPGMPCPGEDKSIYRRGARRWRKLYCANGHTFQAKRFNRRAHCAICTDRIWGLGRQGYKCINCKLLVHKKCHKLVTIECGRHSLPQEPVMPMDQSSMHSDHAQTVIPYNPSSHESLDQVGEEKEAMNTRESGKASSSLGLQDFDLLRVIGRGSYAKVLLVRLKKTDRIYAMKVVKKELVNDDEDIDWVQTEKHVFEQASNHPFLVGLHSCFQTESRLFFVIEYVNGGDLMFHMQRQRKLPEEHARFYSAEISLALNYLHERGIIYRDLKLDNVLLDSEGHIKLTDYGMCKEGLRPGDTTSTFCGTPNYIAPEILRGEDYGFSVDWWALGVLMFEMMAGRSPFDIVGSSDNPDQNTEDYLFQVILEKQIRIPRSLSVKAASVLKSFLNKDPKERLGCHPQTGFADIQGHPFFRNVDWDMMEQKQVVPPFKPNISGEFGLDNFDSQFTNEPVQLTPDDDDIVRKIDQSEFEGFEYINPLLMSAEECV", "experiment": "Selectivity interaction (KinomeScan (DiscoverX)) EUB0000618a PRKCI", "details": "at 10 µM"}, "[6]": {"target": "Homeodomain-interacting protein kinase 1 (Homo sapiens, UniProt Q86Z02)", "sequence (Q86Z02 whole entry, looked up)": "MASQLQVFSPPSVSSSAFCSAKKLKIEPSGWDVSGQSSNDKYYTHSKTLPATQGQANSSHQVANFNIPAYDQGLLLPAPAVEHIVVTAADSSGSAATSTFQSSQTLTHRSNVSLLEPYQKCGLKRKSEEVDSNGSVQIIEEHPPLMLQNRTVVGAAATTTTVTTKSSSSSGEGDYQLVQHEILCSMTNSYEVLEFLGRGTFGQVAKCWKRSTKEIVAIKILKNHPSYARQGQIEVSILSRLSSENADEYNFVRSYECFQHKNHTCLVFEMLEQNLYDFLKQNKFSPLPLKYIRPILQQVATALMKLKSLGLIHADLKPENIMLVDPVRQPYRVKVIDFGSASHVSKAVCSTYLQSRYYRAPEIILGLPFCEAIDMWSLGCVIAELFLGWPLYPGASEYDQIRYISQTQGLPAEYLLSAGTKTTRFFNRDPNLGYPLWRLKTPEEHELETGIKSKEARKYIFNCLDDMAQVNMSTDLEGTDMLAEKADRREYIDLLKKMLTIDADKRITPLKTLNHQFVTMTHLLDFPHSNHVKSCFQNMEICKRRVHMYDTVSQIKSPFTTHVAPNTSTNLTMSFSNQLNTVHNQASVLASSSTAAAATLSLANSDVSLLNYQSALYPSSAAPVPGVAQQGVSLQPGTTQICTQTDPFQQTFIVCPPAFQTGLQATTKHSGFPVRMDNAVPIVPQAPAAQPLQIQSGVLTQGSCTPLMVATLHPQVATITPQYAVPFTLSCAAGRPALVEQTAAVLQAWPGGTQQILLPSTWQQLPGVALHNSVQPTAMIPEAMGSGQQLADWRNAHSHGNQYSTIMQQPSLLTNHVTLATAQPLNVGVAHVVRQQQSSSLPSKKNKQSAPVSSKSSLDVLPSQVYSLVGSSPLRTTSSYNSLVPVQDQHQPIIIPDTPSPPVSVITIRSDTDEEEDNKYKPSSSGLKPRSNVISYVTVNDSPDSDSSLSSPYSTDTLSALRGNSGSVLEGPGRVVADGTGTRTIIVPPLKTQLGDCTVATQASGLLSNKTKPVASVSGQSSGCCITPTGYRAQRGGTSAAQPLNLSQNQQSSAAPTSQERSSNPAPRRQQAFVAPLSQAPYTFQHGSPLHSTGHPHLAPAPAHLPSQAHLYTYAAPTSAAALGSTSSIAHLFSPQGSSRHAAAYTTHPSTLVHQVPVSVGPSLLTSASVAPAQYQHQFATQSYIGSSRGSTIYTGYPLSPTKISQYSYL", "details": "at 10 µM"}, "[7]": {"target": "Cyclin-dependent kinase 9 (Homo sapiens, UniProt P50750)", "sequence (P50750 whole entry)": "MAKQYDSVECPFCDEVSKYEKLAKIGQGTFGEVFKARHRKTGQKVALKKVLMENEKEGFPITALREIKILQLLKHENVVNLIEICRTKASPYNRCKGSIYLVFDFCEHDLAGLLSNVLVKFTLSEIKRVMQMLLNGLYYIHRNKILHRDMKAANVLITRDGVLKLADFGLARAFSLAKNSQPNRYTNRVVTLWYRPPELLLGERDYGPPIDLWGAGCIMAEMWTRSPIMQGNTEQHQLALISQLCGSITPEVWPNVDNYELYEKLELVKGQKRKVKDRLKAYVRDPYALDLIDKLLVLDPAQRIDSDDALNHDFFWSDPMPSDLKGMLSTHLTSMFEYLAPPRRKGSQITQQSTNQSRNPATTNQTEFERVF", "experiment": "Selectivity interaction (KinomeScan (DiscoverX)) EUB0001619a CDK9", "details": "at 1 µM"}, "[8]": {"target": "Cyclin-dependent kinase 14 (Homo sapiens) (UniProt O94921)", "sequence (O94921 whole entry)": "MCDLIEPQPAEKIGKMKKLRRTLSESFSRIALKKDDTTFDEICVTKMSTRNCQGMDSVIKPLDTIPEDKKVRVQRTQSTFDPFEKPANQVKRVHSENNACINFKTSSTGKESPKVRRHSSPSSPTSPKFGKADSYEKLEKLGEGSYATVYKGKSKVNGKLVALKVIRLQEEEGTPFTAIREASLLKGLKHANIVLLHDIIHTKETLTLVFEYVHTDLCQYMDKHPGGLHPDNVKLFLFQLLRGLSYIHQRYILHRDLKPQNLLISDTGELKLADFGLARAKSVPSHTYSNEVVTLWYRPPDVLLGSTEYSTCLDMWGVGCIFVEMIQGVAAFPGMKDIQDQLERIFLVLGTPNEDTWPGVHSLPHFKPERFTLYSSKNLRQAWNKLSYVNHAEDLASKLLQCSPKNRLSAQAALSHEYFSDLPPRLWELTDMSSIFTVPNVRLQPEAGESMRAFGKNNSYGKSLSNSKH", "experiment": "Selectivity interaction (KinomeScan (DiscoverX)) EUB0000655a CDK14", "details": "at 10 µM"}, "[9]": {"target": "T3, Dual specificity mitogen-activated protein kinase kinase 5 (Homo sapiens) (UniProt Q13163)", "T3 sequence (whole entry)": "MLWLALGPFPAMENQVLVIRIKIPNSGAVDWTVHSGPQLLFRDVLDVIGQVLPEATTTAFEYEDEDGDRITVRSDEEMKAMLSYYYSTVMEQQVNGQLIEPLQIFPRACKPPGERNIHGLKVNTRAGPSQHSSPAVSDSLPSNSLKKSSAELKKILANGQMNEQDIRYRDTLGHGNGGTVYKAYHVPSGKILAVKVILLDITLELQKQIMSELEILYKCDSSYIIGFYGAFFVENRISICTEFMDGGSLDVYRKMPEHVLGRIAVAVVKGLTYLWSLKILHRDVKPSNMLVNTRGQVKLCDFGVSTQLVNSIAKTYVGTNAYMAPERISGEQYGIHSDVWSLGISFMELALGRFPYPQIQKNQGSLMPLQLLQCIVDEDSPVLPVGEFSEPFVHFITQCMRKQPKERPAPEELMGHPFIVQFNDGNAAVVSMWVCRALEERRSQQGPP", "experiment": "Selectivity interaction (KinomeScan (DiscoverX)) EUB0000607a MAP2K5", "details": "at 10 µM"}, "[10]": {"target": "T4, Aurora kinase C (Homo sapiens) (UniProt Q9UQB9)", "T4 sequence (whole entry)": "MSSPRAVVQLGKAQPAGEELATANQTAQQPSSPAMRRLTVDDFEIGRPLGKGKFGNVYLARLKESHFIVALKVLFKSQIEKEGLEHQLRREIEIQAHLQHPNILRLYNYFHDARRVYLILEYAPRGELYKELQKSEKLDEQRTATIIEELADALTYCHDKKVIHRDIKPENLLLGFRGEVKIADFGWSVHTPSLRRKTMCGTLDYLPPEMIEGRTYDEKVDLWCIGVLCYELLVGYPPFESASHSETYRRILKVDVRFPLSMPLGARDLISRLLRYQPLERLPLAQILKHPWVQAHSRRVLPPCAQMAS", "experiment": "Selectivity interaction (ProQinase) EUB0000171b AURKC"}}}
{"smiles": "COc1cc(Nc2nc(C)cc(-c3cnn4nc(OC)ccc34)n2)cc(C(F)(F)F)c1", "values": [{"measurement": "% of control", "setting": "[1]", "value": 85, "unit": "%"}]}
{"smiles": "CCC(=O)N1CCN(c2ccc(-n3c(=O)ccc4cnc5ccc(-c6cnc7ccccc7c6)cc5c43)cc2C(F)(F)F)CC1", "values": [{"measurement": "% of control", "setting": "[2]", "value": 8.1, "unit": "%"}, {"measurement": "% of control", "setting": "[3]", "value": 100, "unit": "%"}]}
{"smiles": "C=CC(=O)Nc1cc(-n2c(=O)ccc3cnc4ccc(-c5ccc(NS(C)(=O)=O)cc5)cc4c32)ccc1C", "values": [{"measurement": "% of control", "setting": "[4]; at 1 µM", "value": 100, "unit": "%"}, {"measurement": "% of control", "setting": "[4]; at 10 µM", "value": 94, "unit": "%"}]}
{"smiles": "O[C@H]1CC[C@H](Nc2ncc3nc(Nc4c(F)cc(F)cc4F)n([C@H]4CCOC4)c3n2)CC1", "values": [{"measurement": "% of control", "setting": "[5]", "value": 100, "unit": "%"}]}
{"smiles": "Cc1cc([C@@H](C)Nc2ccccc2C(=O)O)c2nc(N3CCOCC3)cc(=O)n2c1", "note": "[AZD-6482]", "values": [{"measurement": "% of control", "setting": "[6]", "value": 100, "unit": "%"}]}
{"smiles": "N#Cc1cccc(-c2c[nH]c3ncnc(N4CCOCC4)c23)c1", "values": [{"measurement": "% of control", "setting": "[7]", "value": 97, "unit": "%"}]}
{"smiles": "CN(C)CCOc1ccc(-c2nc(-c3ccncc3)c(-c3ccc4c(c3)CC/C4=N\\O)[nH]2)cc1", "values": [{"measurement": "% of control", "setting": "[8]", "value": 100, "unit": "%"}]}
{"smiles": "CNC(=O)Nc1ccc(-c2nc(N3CC4CCC(C3)O4)c3cnn(C4CCC5(CC4)OCCO5)c3n2)cc1", "values": [{"measurement": "% of control", "setting": "[9]", "value": 93, "unit": "%"}]}
{"smiles": "C=CC(=O)Nc1cccc(C(=O)Nc2ccc(Nc3cc(-c4[nH]c(SC)nc4C)ccn3)cc2)c1", "values": [{"measurement": "% of control", "setting": "[10]; at 1 µM", "value": 86, "unit": "%"}, {"measurement": "% of control", "setting": "[10]; at 5 µM", "value": 57, "unit": "%"}]}
